Earlier results in paper PMC11599114 (Viruses, 2024).
Like-named read-outs stand apart in the source and are kept apart here.

Assays:
HSV-1 = conditions: HSV-1, Vero
HSV-2 = conditions: HSV-2, Vero
SARS-CoV-2 [1] = conditions: SARS-CoV-2, Vero
HPIV-3 = conditions: HPIV-3, Vero
HCoV-229E [2] = conditions: Vero
HCoV-OC43 = conditions: HCoV-OC43, Vero
SARS-CoV [3] = test system: SARS-CoV
Dengue virus 2(DENV2) = test system: Dengue virus 2(DENV2); set-up: method as in ref 35663971; conditions: DENV2, Huh7, at 10 μM
HSV = test system: HSV; set-up: method as in ref 35663971; conditions: Huh7, at 10 μM
SARS-CoV-2 [4] = test system: SARS-CoV-2; set-up: method as in ref 35663971; conditions: SARS-CoV-2, Huh7, at 10 μM
influenza A virus(H1N1) = test system: influenza A virus(H1N1); set-up: method as in 2 sources; conditions: A(H1N1), MDCK
influenza A virus(H3N2) = test system: influenza A virus(H3N2); set-up: method as in 2 sources; conditions: A(H3N2), MDCK
influenza B virus = test system: influenza B virus; set-up: method as in ref 35259078; conditions: FluB, MDCK
SARS-CoV-2 (HKU001a) = test system: SARS-CoV-2 (HKU001a); set-up: method as in ref 35259078; conditions: Vero E6
SARS-CoV-2(Delta) = test system: SARS-CoV-2(Delta); set-up: method as in ref 35259078; conditions: Vero E6
SARS-CoV-2 [5] = test system: SARS-CoV-2; set-up: method as in 3 sources; conditions: SARS-CoV-2 S-mediated fusion
SARS-CoV-2 [6] = test system: SARS-CoV-2; set-up: method as in 3 sources; conditions: SARS-CoV-2 PsV, Huh-7
SARS-CoV [7] = test system: SARS-CoV; remark: listed apart in the source
HCoV-229E [8] = test system: HCoV-229E
A/Roma-ISS/02/08 H1N1 = conditions: A/Roma-ISS/02/08 H1N1, MDCK
A/Parma0/5/06 H3N2 = conditions: A/Parma0/5/06 H3N2, MDCK

Question: For FVPWFSKFlKRIL [DRAVPe00383], which IC90 (HSV-1) is on record?
Answer: 10.5 µM

Question: What about the IC90 (HSV-2) of the same substance?
Answer: 7.99 µM

Question: What about the IC90 (SARS-CoV-2 [1]) of the same substance?
Answer: 12.9 µM

Question: And the IC90 (HPIV-3)?
Answer: > 50 µM

Question: What about the IC90 (HCoV-229E [2]) of the same substance?
Answer: 50 µM

Question: And the IC90 (HCoV-OC43)?
Answer: 16.3 µM

Question: With FVPWFSKFlkRIL [DRAVPe00384] as the substance, how does the IC90 (HSV-1) read?
Answer: 12.7 µM

Question: And the IC90 (HSV-2)?
Answer: 12.5 µM

Question: What about the IC90 (SARS-CoV-2 [1]) of the same substance?
Answer: 25.3 µM

Question: And the IC90 (HPIV-3)?
Answer: > 50 µM

Question: What about the IC90 (HCoV-229E [2]) of the same substance?
Answer: 50 µM

Question: What about the IC90 (HCoV-OC43) of the same substance?
Answer: 29.2 µM

Question: Which IC50 (SARS-CoV [3]) does the source give for GYFVQDDGEWKFTGSSYYY [DRAVPe01421] here?
Answer: 4 µM

Question: For KKKKYRNIRRPG [AVP1641], which Activity (SARS coronavirus) is on record?
Answer: 45 µg/mL

Question: Which inhibition (Dengue virus 2(DENV2)) does the source give for MGRFKRFRKKFKKLFKKLS [DRAVPe01948] here?
Answer: 50%

Question: What about the inhibition (HSV) of the same substance?
Answer: 50%

Question: And the inhibition (SARS-CoV-2 [4])?
Answer: 80%

Question: For RGAHIKGRWKSRCHRF [DRAVPe01802], which IC50 (influenza A virus(H1N1)) is on record?
Answer: 3.9 µg/mL

Question: And the IC50 (influenza A virus(H3N2))?
Answer: 1.6 µg/mL

Question: And the IC50 (influenza B virus)?
Answer: 7.1 µg/mL

Question: And the IC50 (SARS-CoV-2 (HKU001a))?
Answer: 2.9 µg/mL

Question: What about the IC50 (SARS-CoV-2(Delta)) of the same substance?
Answer: 3.9 µg/mL

Question: What does the source list for “SLDYINVTFLDLQDEMNRLQEAIKVLNQSYINLKDI [DRAVPe00419]”?
Answer: IC50 (SARS-CoV-2 [5]): 0.0041 ± 0.001 µM; IC50 (SARS-CoV-2 [6]): 0.0828 ± 0.0221 µM; IC50 (MERS-CoV): 0.0052 µM; IC50 (SARS-CoV [7]): 0.25 µM; IC50 (HCoV-NL63): 0.416 ± 0.228 µM; IC50 (HCoV-229E [8]): 2.01 ± 0.698 µM

Question: Which EC50 (A/Roma-ISS/02/08 H1N1) does the source give for TNGESTADWAKN [DRAVPe01645] here?
Answer: 0.4 ± 2e-05 µM

Question: What about the EC50 (A/Parma0/5/06 H3N2) of the same substance?
Answer: 0.01 µM
